Data on six compounds can be found in ChEMBL document CHEMBL4431395, “Cellular Activity of New Small Molecule Protein Arginine Deiminase 3 (PAD3) Inhibitors” (ACS Med Chem Lett, 2016).

Where only a bound is given, the exact number is not on record here.

Sequence of Protein-arginine deiminase type-4 (Q9UM07 whole entry): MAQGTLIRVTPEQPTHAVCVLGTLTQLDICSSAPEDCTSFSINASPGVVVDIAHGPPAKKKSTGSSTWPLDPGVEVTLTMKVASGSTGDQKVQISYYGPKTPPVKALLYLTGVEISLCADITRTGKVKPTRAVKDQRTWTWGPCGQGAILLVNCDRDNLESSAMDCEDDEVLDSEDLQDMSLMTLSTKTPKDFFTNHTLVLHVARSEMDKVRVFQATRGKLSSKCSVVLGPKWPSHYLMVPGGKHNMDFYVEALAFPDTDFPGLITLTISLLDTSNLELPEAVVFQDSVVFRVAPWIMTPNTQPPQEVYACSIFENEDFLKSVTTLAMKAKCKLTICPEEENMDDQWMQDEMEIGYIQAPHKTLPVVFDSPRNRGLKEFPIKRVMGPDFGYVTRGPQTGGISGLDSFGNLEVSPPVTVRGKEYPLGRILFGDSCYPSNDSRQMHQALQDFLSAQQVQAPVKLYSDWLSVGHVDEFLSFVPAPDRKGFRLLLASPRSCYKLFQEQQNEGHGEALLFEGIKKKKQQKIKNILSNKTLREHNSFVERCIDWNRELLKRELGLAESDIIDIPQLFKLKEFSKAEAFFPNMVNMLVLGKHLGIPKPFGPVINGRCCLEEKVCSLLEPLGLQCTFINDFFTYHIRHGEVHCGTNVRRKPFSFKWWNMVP

For one assay, the target named is Protein-arginine deiminase type-2 (Homo sapiens, UniProt Q9Y2J8). Kind of assay: Inhibition of recombinant human 6His-tagged PAD2 assessed as reduction in residual activity preincubated for 15 mins followed by addition of N-benzoylated arginine ethyl ester hydrochloride measured after 15 mins by colder assay.
Sequence of Protein-arginine deiminase type-2 (Q9Y2J8 whole entry): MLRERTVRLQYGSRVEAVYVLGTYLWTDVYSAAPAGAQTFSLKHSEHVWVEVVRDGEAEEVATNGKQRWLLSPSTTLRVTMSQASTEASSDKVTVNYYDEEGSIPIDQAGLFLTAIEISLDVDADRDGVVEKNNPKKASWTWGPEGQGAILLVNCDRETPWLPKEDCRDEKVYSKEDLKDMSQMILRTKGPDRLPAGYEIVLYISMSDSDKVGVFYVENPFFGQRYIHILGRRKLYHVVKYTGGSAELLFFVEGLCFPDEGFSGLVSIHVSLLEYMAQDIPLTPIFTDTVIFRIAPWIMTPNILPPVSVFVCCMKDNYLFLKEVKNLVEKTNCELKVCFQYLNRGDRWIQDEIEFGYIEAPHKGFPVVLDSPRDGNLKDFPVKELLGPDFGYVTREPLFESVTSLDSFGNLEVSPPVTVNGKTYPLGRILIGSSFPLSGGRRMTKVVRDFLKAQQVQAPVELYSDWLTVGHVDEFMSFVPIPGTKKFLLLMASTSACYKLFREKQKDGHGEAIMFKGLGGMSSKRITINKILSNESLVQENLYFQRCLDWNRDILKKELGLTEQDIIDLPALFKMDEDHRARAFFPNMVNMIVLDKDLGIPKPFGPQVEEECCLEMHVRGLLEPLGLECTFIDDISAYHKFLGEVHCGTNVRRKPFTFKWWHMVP
`N=C(CCl)NCCOC(=O)NCc1cccc(-c2ccccc2)c1`: the IC50 is 151 µM.

`N=C(CCl)NCCNC(=O)NCc1cccc(-c2ccccc2)c1`: the IC50 is 140 µM.

With `N=C(CCl)NCC#CC(=O)NCc1cccc(-c2ccccc2)c1`, the IC50 amounted to 153 µM.

Take `N=C(CCl)NCCCc1cn(-c2cccc(-c3ccccc3)c2)nn1`: the IC50 came out at 110 µM.

The next assay has as its target Protein-arginine deiminase type-4 (Homo sapiens, UniProt Q9UM07). The assay can be described thus: Inhibition of recombinant human GST-tagged PAD4 expressed in Escherichia coli BL21-DE3 pLysS assessed as reduction in reduction in residual activity preincubated for 15 mins followed by addition of N-benzoylated arginine ethyl ester hydrochloride measured after 15 mins by colder assay.
Consider `N=C(CCl)NCCNC(=O)NCc1cccc(-c2ccccc2)c1`, for which the IC50 turned out to be 129 µM.

Another assay has as its target T1, Protein-arginine deiminase type-1 (Homo sapiens, UniProt Q9ULC6).
T1 sequence (Q9ULC6 whole entry): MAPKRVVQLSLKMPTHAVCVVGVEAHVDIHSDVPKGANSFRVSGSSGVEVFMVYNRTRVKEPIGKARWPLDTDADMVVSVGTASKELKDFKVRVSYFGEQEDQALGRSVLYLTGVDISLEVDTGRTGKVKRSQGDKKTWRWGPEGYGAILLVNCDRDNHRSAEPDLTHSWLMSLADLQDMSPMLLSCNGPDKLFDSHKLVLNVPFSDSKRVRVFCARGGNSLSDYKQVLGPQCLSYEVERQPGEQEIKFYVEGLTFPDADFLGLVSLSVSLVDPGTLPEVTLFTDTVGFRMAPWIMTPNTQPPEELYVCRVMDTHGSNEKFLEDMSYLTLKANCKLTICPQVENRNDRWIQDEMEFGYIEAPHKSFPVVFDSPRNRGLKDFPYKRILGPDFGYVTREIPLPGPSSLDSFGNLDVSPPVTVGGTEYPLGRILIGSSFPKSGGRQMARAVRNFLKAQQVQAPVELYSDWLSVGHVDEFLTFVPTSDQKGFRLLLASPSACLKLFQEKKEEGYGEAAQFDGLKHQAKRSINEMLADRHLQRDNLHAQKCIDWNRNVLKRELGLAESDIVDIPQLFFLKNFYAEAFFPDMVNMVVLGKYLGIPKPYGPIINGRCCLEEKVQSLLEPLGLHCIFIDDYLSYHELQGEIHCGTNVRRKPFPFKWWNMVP
The assay can be described thus: Inhibition of recombinant human 6His-tagged PAD1 assessed as reduction in residual activity preincubated for 15 mins followed by addition of N-benzoylated arginine ethyl ester hydrochloride measured after 15 mins by colder assay.
For the compound `N=C(CCl)NCCOC(=O)NCc1cccc(-c2ccccc2)c1`, the IC50 was > 500 µM.

Take `N=C(CCl)NCCCc1nc(Cl)c(-c2cccc(-c3ccccc3)c2)[nH]1`: the IC50 was 161 µM.

Regarding `N=C(CCl)NC/C=C/C(=O)NCc1cccc(-c2ccccc2)c1`, the IC50 stood at 125 µM.

In the case of `N=C(CCl)NCC#CC(=O)NCc1cccc(-c2ccccc2)c1`, the IC50 was found to be 408 µM.

Regarding `N=C(CCl)NCCCc1cn(-c2cccc(-c3ccccc3)c2)nn1`, the IC50 was 294 µM.

The term IC50 denotes the concentration that gives 50% inhibition.
